Reference: ChEMBL document CHEMBL5338708, “Bis-chalcone polyphenols with potential preventive and therapeutic effects on PD: Design, synthesis and in vitro disaggregation activity against α-synuclein oligomers and fibrils” (Eur J Med Chem, 2022)
pIC50: −log10 of the molar value.

What was measured:
[1] = target: Alpha-synuclein (Homo sapiens, UniProt P37840); assay: Inhibition of recombinant human Alpha-synuclein aggregation expressed in Escherichia coli incubated for 72 hrs by ThT fluorescence assay
[2] = Apparent permeability across basolateral to apical side in MDCKII-MDR1 cells at 10 uM by LC-MS/MS analysis; format: ADME, cell-based, Canis lupus familiaris; conditions: dog, MDCK-MDR1
[3] = Apparent permeability across apical to basolateral side in MDCKII-MDR1 cells at 10 uM by LC-MS/MS analysis; format: ADME, cell-based, Canis lupus familiaris; conditions: dog, MDCK-MDR1
[4] = Efflux ratio of apparent permeability from basolateral to apical side over apical to basolateral side in […] cells at 10 uM by LC-MS/MS analysis; format: ADME, cell-based, Canis lupus familiaris; conditions: dog, MDCK-MDR1

Row | SMILES | pIC50 [1] | Papp B→A at 10 µM [2] [×10⁻⁶ cm/s] | Papp A→B at 10 µM [3] [×10⁻⁶ cm/s] | efflux ratio at 10 µM [4]
1 | O=C(O[C@@H]1Cc2c(O)cc(O)cc2O[C@H]1c1cc(O)c(O)c(O)c1)c1cc(O)c(O)c(O)c1 [GALLOCATECHIN GALLATE] | 5.97 | – | – | –
2 | O=C(/C=C/c1ccc(/C=C/C(=O)c2ccc(O)c(O)c2)cc1)c1ccc(O)c(O)c1 | – | 74.7 | 16.2 | –
3 | CC(C)NCC(O)COc1cccc2ccccc12 (configuration not stated) [PROPRANOLOL] | – | 97 | 36.5 | 2.66
4 | COc1cc(/C=C/C(=O)c2ccc(O)c(O)c2)c(OC)cc1/C=C/C(=O)c1ccc(O)c(O)c1 | – | 96 | 13.5 | –
5 | O=C(/C=C/c1ccc(/C=C/C(=O)c2ccc(O)c(F)c2)cc1)c1ccc(O)c(F)c1 | – | 95.6 | 11.4 | –
6 | COc1cc(/C=C/C(=O)c2cc(O)cc(O)c2)c(OC)cc1/C=C/C(=O)c1cc(O)cc(O)c1 | – | 93.2 | 7.71 | –
